pIC50: −log10 of the molar value.
Legend:
[1] = Chemical stability in aqueous solutions with different pH; assay type: physicochemical; details: 2 μM; for % rem. (2 h) pH 1.2 / % rem. (24 h) pH 1.2: pH 1.2 hydrochloric acid buffer; for % rem. (2 h) pH 1.2 / % rem. (2 h) pH 5.0 / % rem. (2 h) pH 7.4 / % rem. (2 h) pH 9.0: 2 h incubation at 37° C.; for % rem. (24 h) pH 1.2 / % rem. (24 h) pH 5.0 / % rem. (24 h) pH 7.4 / % rem. (24 h) pH 9.0: 24 h incubation at 37° C.; for % rem. (2 h) pH 5.0 / % rem. (24 h) pH 5.0: pH 5.0 acetate buffer; for % rem. (2 h) pH 7.4 / % rem. (24 h) pH 7.4: pH 7.4 phosphate buffer; for % rem. (2 h) pH 9.0 / % rem. (24 h) pH 9.0: pH 9.0 Tris buffer
Procedure: This in vitro model is aimed at assessing the stability of a test compound in aqueous solutions with different pH. The decrease in parent compound is assessed by measuring the percentage parent remaining after 2 and 24 h incubation at 37° C.
A 2 mM DMSO stock is made for each test compound starting from dry matter. Then a 80 μM working solution of compound in DMSO is made by diluting the 2 mM DMSO.
The 80 μM working solution is diluted to a final concentration of 2 μM-2.5% DMSO in buffer with the desired pH (pH 1.2: hydrochloric acid buffer, pH 5.0: acetate buffer, pH 7.4: phosphate buffer, pH 9.0: Tris buffer) in 96-well plates with glass inserts (Cat no. 548-0201/548-0202, VWR-Thermo Scientific). Two replicates are run for each buffer solution and each time point.
One set of vials is incubated for 24 h at 200 rpm and another for 2 h at 200 rpm. To stop the reaction after the respective incubation times, 4 volumes of acetonitrile containing the internal standard (stop solution) are added to the reaction solution and the vials are vortexed briefly.
For the 0 h incubation, the stop solution with internal standard is first added to the buffer solution in glass vials and then the working solution of test compound (final concentration: 2 μM-2.5% DMSO) is added.
Propranolol is used as internal standard, but if the mass difference is too low with the test compound(s), another product is selected as internal standard. The concentration of the internal standard is chosen to obtain a peak area half of the average peak area of the test compounds and control at time point 0.
Analysis is performed on an LCMS-MS system (API2000 or API4000). The average of the peak areas of the two replicates from the parent compound at time 0 divided by the peak area of the internal standard is considered to be 100% remaining. The percentage remaining after 2 and 24 h of incubation is calculated for all other peaks and the percentage remaining after 2 and 24 h is reported.

human neutrophils = assay: Human neutrophil migration assay; assay type: cell-based; details: for pIC50: Homo sapiens, Neutrophil, embelin at EC80 as chemotactic agent, 1 h at 37° C., read-out: Human neutrophil migration IC50
In short: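 Neutrophils freshly isolated from human buffy coats by dextran sedimentation and hypotonic lysis were preincubated with compound for 30 min at room temperature. Chemotaxis then ran in a Transwell system for 1 h at 37° C, 5% CO2. Migrated cells in the lower well were quantified by ATPlite luminescence.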

GPR84 [2] = biological target: T1, GPR84 (Homo sapiens, UniProt Q9NQS5); assay: GPR84 [35S]GTPγS binding assay; assay type: biochemical; details: 3,3′-diindolylmethane at EC80; membranes from stable cell line over expressing GPR84
T1 construct: expressed in transfected cells
T1 sequence (Q9NQS5 whole entry): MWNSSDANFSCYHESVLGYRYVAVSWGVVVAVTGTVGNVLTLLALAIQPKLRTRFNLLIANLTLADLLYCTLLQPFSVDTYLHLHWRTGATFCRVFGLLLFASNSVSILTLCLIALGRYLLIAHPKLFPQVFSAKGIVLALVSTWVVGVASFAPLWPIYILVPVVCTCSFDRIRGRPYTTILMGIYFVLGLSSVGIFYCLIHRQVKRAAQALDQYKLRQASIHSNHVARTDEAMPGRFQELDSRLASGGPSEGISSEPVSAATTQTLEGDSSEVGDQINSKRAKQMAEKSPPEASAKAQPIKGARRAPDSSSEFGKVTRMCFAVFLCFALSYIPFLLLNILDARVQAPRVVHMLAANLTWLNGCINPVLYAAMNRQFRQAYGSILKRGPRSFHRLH
In short: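 Antagonist-mode [35S]GTPγS binding on membranes from a GPR84-overexpressing stable line (GDP-preincubated), stimulated with 3,3′-diindolylmethane at EC80. Buffer 20 mM Tris pH 7.5, 5 mM MgCl2, 250 mM NaCl, saponin; 0.1 nM [35S]GTPγS, 90 min at room temperature, SPA bead read-out.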

[3] = system: RAW264.7 murine macrophage-like cells; details: RAW264.7 cells stimulated with LPS; cited from earlier work
GPR84 [4] = biological target: T1, GPR84; details: literature; cited from earlier work

| Structure (SMILES) | % rem. (2 h) pH 1.2 [1] | % rem. (24 h) pH 1.2 [1] | % rem. (2 h) pH 5.0 [1] | % rem. (24 h) pH 5.0 [1] | % rem. (2 h) pH 7.4 [1] | % rem. (24 h) pH 7.4 [1] | % rem. (2 h) pH 9.0 [1] | % rem. (24 h) pH 9.0 [1] | pIC50 (human neutrophils) | pIC50 (GPR84 [2]) | secretion of interleukin-12 p40 subunit (IL-12 p40) [3] | GPR84 agonist activity (GPR84 [4]) | neutrophil chemotaxis induced by GPR84 agonists (human neutrophils) |
| --- | --- | --- | --- | --- | --- | --- | --- | --- | --- | --- | --- | --- | --- |
| COc1ccc2c(c1OC)CCn1c(NCC3CCCO3)cc(=O)c(C)c1-2 (centres unmarked) [Compound 10, 8,9-dimethoxy-1-methyl-4-(tetrahydrofuran-2-ylmethylamino)-6,7-dihydrobenzo[a]quinolizin-2-one] | *** (>80%) | *** (>80%) | *** (>80%) | *** (>80%) | *** (>80%) | *** (>80%) | *** (>80%) | *** (>80%) | 7.00 to 11.00 | 7.00 to 11.00 |  |  |  |
| CCCCCCCCCCCC(=O)O [lauric acid] |  |  |  |  |  |  |  |  |  |  | dose dependently increased |  |  |
| CCCCCCCCCCC(=O)O [undecanoic acid] |  |  |  |  |  |  |  |  |  |  | dose dependently increased |  |  |
| Cc1c2n(c(NCC3CCCO3)cc1=O)CCc1cc(OCC(F)(F)F)ccc1-2 (centres unmarked) [Compound 8, 1-methyl-4-(tetrahydrofuran-2-ylmethylamino)-9-(2,2,2-trifluoroethoxy)-6,7-dihydrobenzo[a]quinolizin-2-one] | *** (>80%) | *** (>80%) | *** (>80%) | *** (>80%) | *** (>80%) | *** (>80%) | *** (>80%) | *** (>80%) | 7.00 to 11.00 | 6.30 to 7.00 |  |  |  |
| COc1ccc2c(c1OC)CCn1c(OC[C@@H]3COCCO3)cc(=O)c(C)c1-2 [Compound 12, 4-[[(2S)-1,4-dioxan-2-yl]methoxy]-8,9-dimethoxy-1-methyl-6,7-dihydrobenzo[a]quinolizin-2-one] | *** (>80%) | *** (>80%) | *** (>80%) | *** (>80%) | *** (>80%) | *** (>80%) | *** (>80%) | *** (>80%) | 6.30 to 7.00 | 6.30 to 7.00 |  |  |  |
| c1ccc2c(Cc3c[nH]c4ccccc34)c[nH]c2c1 [3,3′-diindolylmethane, reference compound] |  |  |  |  |  |  |  |  |  |  |  | some GPR84 agonist activity | induce neutrophil chemotaxis |
| Cc1c2n(c(OC[C@@H]3COCCO3)cc1=O)CCc1cc(OCC(F)(F)F)ccc1-2 [Compound 18, 4-[[(2S)-1,4-dioxan-2-yl]methoxy]-1-methyl-9-(2,2,2-trifluoroethoxy)-6,7-dihydrobenzo[a]quinolizin-2-one] | *** (>80%) | *** (>80%) | *** (>80%) | *** (>80%) | *** (>80%) | *** (>80%) | *** (>80%) | *** (>80%) | 7.00 to 11.00 | 7.00 to 11.00 |  |  |  |
| CCCCCCCCNc1cc(=O)[nH]c(=O)[nH]1 [6-n-octylaminouracil] |  |  |  |  |  |  |  |  |  |  |  | some GPR84 agonist activity |  |
| COc1cc2c(cc1OC)-c1c(C)c(=O)cc(OC[C@@H]3COCCO3)n1CC2 [Compound 1, 4-[[(2S)-1,4-dioxan-2-yl]methoxy]-9,10-dimethoxy-1-methyl-6,7-dihydrobenzo[a]quinolizin-2-one] | *** (>80%) | *** (>80%) | *** (>80%) | *** (>80%) | *** (>80%) | *** (>80%) | *** (>80%) | *** (>80%) | 6.30 to 7.00 | 6.30 to 7.00 |  |  |  |
| CCCCCCCCCC(=O)O [capric acid] |  |  |  |  |  |  |  |  |  |  | dose dependently increased |  |  |

— patent US10568879B2 (GALAPAGOS NV, priority 2015, dated 2020)
